Common to all, as to test: NCI-60 cell line screen, 48 h
The subject of test [1] is A498 renal.
Test [2] has as its system ACHN renal.
For test [3], the system named is DU-145 prostate.
Test [4] deals with HCT-116 colon.
Test [5] has as its system IGROV1 ovarian.
In test [6] the test system is KM12 colon.
For test [7], the system named is MALME-3M melanoma.
In test [8] the test system is MDA-MB-435.
Test [9] has as its system MDA-N.
Test [10] has as its system NCI-H226 lung.
The subject of test [11] is NCI-H460 lung.
In test [12] the test system is NCI-H522 lung.
Test [13] relates to NCI/ADR-RES ovarian.
For test [14], the system named is PC-3 prostate.
Test [15] concerns RPMI-8226 leukemia.
For test [16], the system named is RXF 393 renal.
For test [17], the system named is SF-295 CNS.
Test [18] has as its system SK-MEL-5 melanoma.
Test [19] has as its system SNB-75 CNS.
Test [20] has as its system BT-549 breast.

Consider seven compounds from PubChem BioAssay (NCI).

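These data come from cells grown in 96-well plates and exposed to compound for 48 hours at five concentrations. TGI marks complete inhibition of growth.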 Where a SMILES comes first, the peptide text is derived from it. A value given as a limit tells only on which side of the number the result lay.

Consider `O=[N+]([O-])c1cc(-c2nnc(C34CC5CC(CC(C5)C3)C4)o2)cc([N+](=O)[O-])c1`, for which the TGI in test [1], in [2], in test [3], in test [4], in test [5] and in test [6] was > 100 µM in each case. For the same compound, the TGI was > 100 µM in test [7]; 77 µM in test [8]; > 100 µM in test [9]; > 100 µM in test [10]; > 100 µM in test [11]; > 100 µM in test [12]. Moreover, the TGI is > 100 µM in [13]; > 100 µM in [14]; > 100 µM in [15]; > 100 µM in test [16]; > 100 µM in [17]; 44.8 µM in test [18]. The TGI in [19] is > 100 µM.

Turning to `CNC(=O)CNC(=O)C(NC(=O)CNC(=O)C1CCCN1C(=O)C(C)NC(=O)C(NC(C)=O)C(C)C)C(C)C` (stereo not drawn) (Ac-VAPGVG-NHMe; configuration not given here), the TGI in [1], in [2], in [3], in test [4], in [5] and in test [7] was > 100 µM each time. Besides, the TGI in test [8], in test [9], in [11], in [12], in test [13] and in [14] was > 100 µM throughout. Further, the TGI in test [15] and in test [17] was > 100 µM throughout.

With `COc1cc2c(cc1OC)-c1c(oc3cc(OC4OC(CO)C(O)C(O)C4O)c(OC)cc3c1=O)C(O)O2` (stereo not drawn), the TGI in test [1], in test [2], in [20], in [3], in test [4] and in [5] was > 100 µM in each case. For the same compound, the TGI in test [6], in [7], in test [8], in [10], in test [11] and in test [12] was > 100 µM in each case. Moreover, the TGI in test [13], in test [14], in test [15], in [16], in test [17] and in test [18] was > 100 µM throughout. Moreover, in test [19], the TGI is > 100 µM.

In the case of `CC(C)n1c(=O)[nH]n(-c2ccccc2)c1=O`, the TGI in [1], in test [2], in test [3], in test [4], in test [5] and in [6] was > 100 µM each time. For the same compound, the TGI in test [7], in test [8], in [9], in test [10], in test [11] and in test [12] was > 100 µM in each case. Further, the TGI in [13], in [14], in test [15], in [16], in test [17] and in [18] was > 100 µM throughout. Also, in [19], the TGI is > 100 µM.

As to `C=C1CC2CC(=O)C(O)C(C1)C2` (stereo not drawn), the TGI in test [1], in test [2], in test [3], in test [4], in [6] and in test [8] was > 100 µM each time. The TGI in test [9], in test [10], in [11], in [12], in test [13] and in test [15] was > 100 µM each time. The TGI in test [16], in test [17], in test [18] and in test [19] was > 100 µM in each case.

On to `COCCN(CCOC)C(=O)COc1c2cc(C(C)(C)C)cc1Cc1cc(C(C)(C)C)cc(c1OCC(=O)N(CCOC)CCOC)Cc1cc(C(C)(C)C)cc(c1OCC(=O)N(CCOC)CCOC)Cc1cc(C(C)(C)C)cc(c1OCC(=O)N(CCOC)CCOC)Cc1cc(C(C)(C)C)cc(c1OCC(=O)N(CCOC)CCOC)C2`, for which the TGI is 9.53 µM in [1]; 12.6 µM in test [2]; 11.1 µM in test [3]; 3.78 µM in test [4]; 10.1 µM in test [5]; 11.1 µM in test [6]. The TGI in test [7] turned out to be 16.9 µM; in test [8] it was 10.7 µM; in test [9] it was 12.1 µM; in test [10], 11 µM; in test [11] it was 5.86 µM; in test [12], 6.9 µM. In addition, the TGI in test [13] was determined as 33 µM; in test [14], 3.48 µM; in test [16], 4.03 µM; in [17] it was 6.43 µM; in test [18], 2.78 µM; in test [19], 0.576 µM.

For `COC(=O)c1cc(C)ccc1C1CN=NC12Cc1cccc(C)c1C2=O` (stereo not drawn), the TGI in test [1] was > 100 µM; in test [2], > 100 µM; in test [3], > 100 µM; in test [4], 70.5 µM; in test [5] it was > 100 µM; in [6] it was 79.7 µM. Besides, the TGI in [7] was 67.5 µM; in [8], 61.8 µM; in [9] it was > 100 µM; in [10] it was > 100 µM; in [11], 72.3 µM; in [12], 89.6 µM. For the same compound, the TGI in test [13] was 77.9 µM; in test [15], 54.9 µM; in test [16], > 100 µM; in test [17], > 100 µM; in test [18], 31.9 µM; in test [19], > 100 µM.
